Experimental data taken from ChEMBL document CHEMBL6074715, “Discovery of pyridine-based derivatives as FLT3 inhibitors for the treatment of acute myeloid leukemia” (Eur J Med Chem, 2025).
Calls of active or inactive are those of the source. The rule behind the calls is not given here.

Key:
[1] = Toxicity in female NSG mouse assessed as effect on body weight loss at 20 to 40 mg/kg, po measured after 21 days; assay type: organism-based; settings: in vivo, 504 h, dose 20-40 mg/kg, time 21 day
MOLM-13 [2] = experiment: Induction of apoptosis in human MOLM-13 cells assessed as viable cells at 0.3 uM measured after 48 hrs by annexin-V and PI staining based flow cytometry analysis (reference value: 88.7%); assay type: functional; settings: read-out: Activity
Homo sapiens [3] = species: Homo sapiens; experiment: Inhibition of human DNA-PK at 1 uM by Eurofins kinase assay
[4] = biological target: Vascular endothelial growth factor receptor 2 (Homo sapiens, UniProt P35968); experiment: Inhibition of human KDR at 1 uM by Eurofins kinase assay
[5] = biological target: Dual specificity mitogen-activated protein kinase kinase 1 (Homo sapiens) (UniProt Q02750); experiment: Inhibition of human MEK1 at 1 uM by Eurofins kinase assay
[6] = Tmax in Sprague-Dawley rat at 20 mg/kg, po measured upto 48 hrs by LC-MS/MS analysis; assay type: ADME, organism-based; settings: in vivo
[7] = biological target: Tyrosine-protein kinase Lck (Homo sapiens) (UniProt P06239); experiment: Inhibition of human LCK at 1 uM by Eurofins kinase assay
[8] = biological target: Tyrosine-protein kinase BTK (Homo sapiens) (UniProt Q06187); experiment: Inhibition of human BTK at 1 uM by Eurofins kinase assay
[9] = biological target: Death-associated protein kinase 1 (Homo sapiens) (UniProt P53355); experiment: Inhibition of human DAPK1 at 1 uM by Eurofins kinase assay
[10] = Volume of distribution in Sprague-Dawley rat at 5 mg/kg, iv measured upto 48 hrs by LC-MS/MS analysis; assay type: ADME, organism-based; settings: in vivo
[11] = biological target: Receptor-type tyrosine-protein kinase FLT3 (Homo sapiens) (UniProt P36888); experiment: Inhibition of FLT3 phosphorylation in human MOLM-13 cells at 40 nM incubated for 2 hrs by Western blot analysis relative to control; assay type: cell-based
[12] = biological target: Cyclin-dependent kinase 2/cyclin A (Homo sapiens) (UniProt P24941+P20248+P78396); experiment: Inhibition of human CDK2/cyclinA at 1 uM by Eurofins kinase assay; assay type: protein-complex assay
[13] = biological target: Proto-oncogene tyrosine-protein kinase ROS (Homo sapiens) (UniProt P08922); experiment: Inhibition of human Ros at 1 uM by Eurofins kinase assay
[14] = biological target: Macrophage colony-stimulating factor 1 receptor (Homo sapiens, UniProt P07333); experiment: Inhibition of FMS (unknown origin) preincubated for 10 mins followed by addition of peptide solution by caliper mobility shift assay
[15] = biological target: Serine/threonine-protein kinase WNK1 (Homo sapiens) (UniProt Q9H4A3); experiment: Inhibition of human WNK1 at 1 uM by Eurofins kinase assay
[16] = biological target: Serine/threonine-protein kinase PAK 4 (Homo sapiens) (UniProt O96013); experiment: Inhibition of human PAK4 at 1 uM by Eurofins kinase assay
[17] = biological target: Tyrosine-protein kinase receptor UFO (Homo sapiens) (UniProt P30530); experiment: Inhibition of human AXL at 1 uM by Eurofins kinase assay
MOLM-13 [18] = experiment: Induction of cell cycle arrest in human MOLM-13 cells assessed as accumulation of cells at G1 phase at 1 uM measured after 48 hrs by PI staining based flow cytometry analysis (reference value: 42.8%); assay type: functional
[19] = Toxicity in female NSG mouse assessed as effect on kidney at 20 to 40 mg/kg, po measured after 21 days by H and E staining based analysis; assay type: organism-based; settings: in vivo, 504 h, dose 20-40 mg/kg, time 21 day
[20] = biological target: Platelet-derived growth factor receptor beta (Homo sapiens) (UniProt P09619); experiment: Inhibition of human PDGFRbeta at 1 uM by Eurofins kinase assay
[21] = biological target: Mast/stem cell growth factor receptor Kit (Homo sapiens) (UniProt P10721); experiment: Inhibition of human ckit at 1 uM by Eurofins kinase assay
[22] = AUC (0 to t) in Sprague-Dawley rat at 20 mg/kg, po measured upto 48 hrs by LC-MS/MS analysis; assay type: ADME, organism-based; settings: in vivo
[23] = biological target: Inhibitor of nuclear factor kappa-B kinase subunit beta (Homo sapiens) (UniProt O14920); experiment: Inhibition of human IKKB at 1 uM by Eurofins kinase assay
[24] = system: Mast/stem cell growth factor receptor Kit (Homo sapiens), P10721 [D816V]; experiment: Inhibition of human c-kit D816V mutant at 1 uM by Eurofins kinase assay
MOLM-13 [25] = experiment: Induction of apoptosis in human MOLM-13 cells assessed as viable cells at 3 uM measured after 48 hrs by annexin-V and PI staining based flow cytometry analysis (reference value: 88.7%); assay type: functional; settings: read-out: Activity
[26] = AUC (0 to infinity) in Sprague-Dawley rat at 20 mg/kg, po measured upto 48 hrs by LC-MS/MS analysis; assay type: ADME, organism-based; settings: in vivo
Homo sapiens [27] = species: Homo sapiens; experiment: Inhibition of human Rct at 1 uM by Eurofins kinase assay
EBC-1 = experiment: Antiproliferative activity against human EBC-1 cells assessed as inhibition of cell growth measured after 72 hrs by Celltiter-glo luminescent cell viability assay; assay type: functional, cell-based; settings: EBC-1, 72 h
[28] = Antiproliferative activity against human PBMC cells assessed as inhibition of cell growth measured after 72 hrs by Celltiter-glo luminescent cell viability assay; assay type: toxicity, cell-based
THP-1 = experiment: Antiproliferative activity against human THP-1 cells harbouring wild type FLT3 assessed as inhibition of cell growth measured after 72 hrs by Celltiter-glo luminescent cell viability assay; assay type: functional, cell-based; settings: THP-1, 72 h
MOLM-13 [29] = experiment: Induction of cell cycle arrest in human MOLM-13 cells assessed as accumulation of cells at G2 phase at 3 uM measured after 48 hrs by PI staining based flow cytometry analysis (reference value: 12.5%); assay type: functional
HL-60 = experiment: Antiproliferative activity against human HL-60 cells harbouring wild type FLT3 assessed as inhibition of cell growth measured after 72 hrs by Celltiter-glo luminescent cell viability assay; assay type: functional, cell-based; settings: HL-60, 72 h
MOLM-13 [30] = experiment: Induction of apoptosis in human MOLM-13 cells assessed as necrotic cells at 3 uM measured after 48 hrs by annexin-V and PI staining based flow cytometry analysis (reference value: 0.087%); assay type: functional
MOLM-13 [31] = experiment: Effect on STAT5 level in human MOLM-13 cells at 0.04 to 5 nM measured after 2 hrs by Western blot analysis; assay type: functional, cell-based; settings: dose 0.04-5 nM
MOLM-13 [32] = experiment: Antitumor activity against human MOLM-13 cells xenografted in female NSG mouse model assessed as delay in tumor growth at 20 to 40 mg/kg/day, po measured after 21 days; assay type: functional, organism-based; settings: dose 20-40 mg/kg/day, time 21.0 day
MOLM-14 = experiment: Antiproliferative activity against human MOLM-14 cells harbouring FLT3-ITD assessed as inhibition of cell growth measured after 72 hrs by Celltiter-glo luminescent cell viability assay; assay type: functional, cell-based; settings: MOLM-14, 72 h
[33] = biological target: Tyrosine-protein kinase ABL1 (Homo sapiens) (UniProt P00519); experiment: Inhibition of human ABL1 at 1 uM by Eurofins kinase assay
[34] = biological target: Receptor-type tyrosine-protein kinase FLT3 (Homo sapiens) (UniProt P36888); experiment: Inhibition of FLT3 phosphorylation in human MOLM-13 cells incubated for 2 hrs by Western blot analysis; assay type: cell-based; settings: dose 0.04-5 µM
Jurkat = experiment: Antiproliferative activity against human Jurkat cells assessed as inhibition of cell growth measured after 72 hrs by Celltiter-glo luminescent cell viability assay; assay type: functional, cell-based

Receptor-type tyrosine-protein kinase FLT3 (Homo sapiens), sequence (P36888 whole entry): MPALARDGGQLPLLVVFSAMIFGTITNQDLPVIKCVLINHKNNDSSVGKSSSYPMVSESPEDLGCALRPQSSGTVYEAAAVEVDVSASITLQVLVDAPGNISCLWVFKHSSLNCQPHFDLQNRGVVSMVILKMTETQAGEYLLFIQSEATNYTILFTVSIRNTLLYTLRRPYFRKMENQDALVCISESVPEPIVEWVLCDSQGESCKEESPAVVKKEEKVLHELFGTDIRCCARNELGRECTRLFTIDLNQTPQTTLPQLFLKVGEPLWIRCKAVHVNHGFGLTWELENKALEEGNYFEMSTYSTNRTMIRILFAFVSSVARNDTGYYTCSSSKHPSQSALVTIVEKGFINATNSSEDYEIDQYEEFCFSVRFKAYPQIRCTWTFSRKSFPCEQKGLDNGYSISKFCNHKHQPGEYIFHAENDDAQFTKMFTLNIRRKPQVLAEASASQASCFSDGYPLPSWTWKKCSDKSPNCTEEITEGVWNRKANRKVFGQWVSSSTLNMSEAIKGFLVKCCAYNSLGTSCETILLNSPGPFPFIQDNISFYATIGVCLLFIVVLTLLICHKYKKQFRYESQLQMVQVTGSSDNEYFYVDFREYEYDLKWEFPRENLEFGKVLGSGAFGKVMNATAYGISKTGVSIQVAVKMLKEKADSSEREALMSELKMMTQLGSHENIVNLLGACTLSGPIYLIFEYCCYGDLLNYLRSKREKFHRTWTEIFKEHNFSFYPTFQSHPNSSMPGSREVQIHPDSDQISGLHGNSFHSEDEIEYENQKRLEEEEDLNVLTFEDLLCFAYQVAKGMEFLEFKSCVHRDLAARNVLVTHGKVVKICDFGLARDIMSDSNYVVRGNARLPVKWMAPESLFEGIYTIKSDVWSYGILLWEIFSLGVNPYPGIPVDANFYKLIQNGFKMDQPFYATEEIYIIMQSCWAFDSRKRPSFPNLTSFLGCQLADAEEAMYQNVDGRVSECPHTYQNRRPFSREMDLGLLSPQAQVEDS
Tyrosine-protein kinase receptor UFO (Homo sapiens), sequence (P30530 whole entry): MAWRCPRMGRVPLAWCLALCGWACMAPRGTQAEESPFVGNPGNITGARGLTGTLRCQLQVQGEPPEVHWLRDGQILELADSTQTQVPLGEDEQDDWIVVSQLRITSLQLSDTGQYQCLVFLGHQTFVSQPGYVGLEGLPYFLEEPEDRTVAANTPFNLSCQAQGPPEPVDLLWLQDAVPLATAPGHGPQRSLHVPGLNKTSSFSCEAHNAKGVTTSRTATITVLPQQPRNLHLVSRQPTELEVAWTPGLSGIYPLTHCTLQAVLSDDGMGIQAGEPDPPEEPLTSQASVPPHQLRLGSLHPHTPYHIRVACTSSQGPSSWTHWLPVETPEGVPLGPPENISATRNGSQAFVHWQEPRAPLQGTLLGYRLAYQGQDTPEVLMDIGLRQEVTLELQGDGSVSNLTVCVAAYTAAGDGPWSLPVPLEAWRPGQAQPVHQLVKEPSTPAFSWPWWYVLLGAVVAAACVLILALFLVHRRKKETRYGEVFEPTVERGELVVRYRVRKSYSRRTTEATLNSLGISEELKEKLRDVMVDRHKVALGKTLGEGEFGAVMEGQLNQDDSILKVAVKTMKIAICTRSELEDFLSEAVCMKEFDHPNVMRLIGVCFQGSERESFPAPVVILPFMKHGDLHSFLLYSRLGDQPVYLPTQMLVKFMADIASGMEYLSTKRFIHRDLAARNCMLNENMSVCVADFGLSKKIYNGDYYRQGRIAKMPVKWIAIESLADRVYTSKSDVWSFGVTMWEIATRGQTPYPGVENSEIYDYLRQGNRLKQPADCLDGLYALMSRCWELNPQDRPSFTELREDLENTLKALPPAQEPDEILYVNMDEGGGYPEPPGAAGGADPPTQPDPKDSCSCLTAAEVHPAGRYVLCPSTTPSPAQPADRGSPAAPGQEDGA
Proto-oncogene tyrosine-protein kinase ROS (Homo sapiens), sequence (P08922 whole entry): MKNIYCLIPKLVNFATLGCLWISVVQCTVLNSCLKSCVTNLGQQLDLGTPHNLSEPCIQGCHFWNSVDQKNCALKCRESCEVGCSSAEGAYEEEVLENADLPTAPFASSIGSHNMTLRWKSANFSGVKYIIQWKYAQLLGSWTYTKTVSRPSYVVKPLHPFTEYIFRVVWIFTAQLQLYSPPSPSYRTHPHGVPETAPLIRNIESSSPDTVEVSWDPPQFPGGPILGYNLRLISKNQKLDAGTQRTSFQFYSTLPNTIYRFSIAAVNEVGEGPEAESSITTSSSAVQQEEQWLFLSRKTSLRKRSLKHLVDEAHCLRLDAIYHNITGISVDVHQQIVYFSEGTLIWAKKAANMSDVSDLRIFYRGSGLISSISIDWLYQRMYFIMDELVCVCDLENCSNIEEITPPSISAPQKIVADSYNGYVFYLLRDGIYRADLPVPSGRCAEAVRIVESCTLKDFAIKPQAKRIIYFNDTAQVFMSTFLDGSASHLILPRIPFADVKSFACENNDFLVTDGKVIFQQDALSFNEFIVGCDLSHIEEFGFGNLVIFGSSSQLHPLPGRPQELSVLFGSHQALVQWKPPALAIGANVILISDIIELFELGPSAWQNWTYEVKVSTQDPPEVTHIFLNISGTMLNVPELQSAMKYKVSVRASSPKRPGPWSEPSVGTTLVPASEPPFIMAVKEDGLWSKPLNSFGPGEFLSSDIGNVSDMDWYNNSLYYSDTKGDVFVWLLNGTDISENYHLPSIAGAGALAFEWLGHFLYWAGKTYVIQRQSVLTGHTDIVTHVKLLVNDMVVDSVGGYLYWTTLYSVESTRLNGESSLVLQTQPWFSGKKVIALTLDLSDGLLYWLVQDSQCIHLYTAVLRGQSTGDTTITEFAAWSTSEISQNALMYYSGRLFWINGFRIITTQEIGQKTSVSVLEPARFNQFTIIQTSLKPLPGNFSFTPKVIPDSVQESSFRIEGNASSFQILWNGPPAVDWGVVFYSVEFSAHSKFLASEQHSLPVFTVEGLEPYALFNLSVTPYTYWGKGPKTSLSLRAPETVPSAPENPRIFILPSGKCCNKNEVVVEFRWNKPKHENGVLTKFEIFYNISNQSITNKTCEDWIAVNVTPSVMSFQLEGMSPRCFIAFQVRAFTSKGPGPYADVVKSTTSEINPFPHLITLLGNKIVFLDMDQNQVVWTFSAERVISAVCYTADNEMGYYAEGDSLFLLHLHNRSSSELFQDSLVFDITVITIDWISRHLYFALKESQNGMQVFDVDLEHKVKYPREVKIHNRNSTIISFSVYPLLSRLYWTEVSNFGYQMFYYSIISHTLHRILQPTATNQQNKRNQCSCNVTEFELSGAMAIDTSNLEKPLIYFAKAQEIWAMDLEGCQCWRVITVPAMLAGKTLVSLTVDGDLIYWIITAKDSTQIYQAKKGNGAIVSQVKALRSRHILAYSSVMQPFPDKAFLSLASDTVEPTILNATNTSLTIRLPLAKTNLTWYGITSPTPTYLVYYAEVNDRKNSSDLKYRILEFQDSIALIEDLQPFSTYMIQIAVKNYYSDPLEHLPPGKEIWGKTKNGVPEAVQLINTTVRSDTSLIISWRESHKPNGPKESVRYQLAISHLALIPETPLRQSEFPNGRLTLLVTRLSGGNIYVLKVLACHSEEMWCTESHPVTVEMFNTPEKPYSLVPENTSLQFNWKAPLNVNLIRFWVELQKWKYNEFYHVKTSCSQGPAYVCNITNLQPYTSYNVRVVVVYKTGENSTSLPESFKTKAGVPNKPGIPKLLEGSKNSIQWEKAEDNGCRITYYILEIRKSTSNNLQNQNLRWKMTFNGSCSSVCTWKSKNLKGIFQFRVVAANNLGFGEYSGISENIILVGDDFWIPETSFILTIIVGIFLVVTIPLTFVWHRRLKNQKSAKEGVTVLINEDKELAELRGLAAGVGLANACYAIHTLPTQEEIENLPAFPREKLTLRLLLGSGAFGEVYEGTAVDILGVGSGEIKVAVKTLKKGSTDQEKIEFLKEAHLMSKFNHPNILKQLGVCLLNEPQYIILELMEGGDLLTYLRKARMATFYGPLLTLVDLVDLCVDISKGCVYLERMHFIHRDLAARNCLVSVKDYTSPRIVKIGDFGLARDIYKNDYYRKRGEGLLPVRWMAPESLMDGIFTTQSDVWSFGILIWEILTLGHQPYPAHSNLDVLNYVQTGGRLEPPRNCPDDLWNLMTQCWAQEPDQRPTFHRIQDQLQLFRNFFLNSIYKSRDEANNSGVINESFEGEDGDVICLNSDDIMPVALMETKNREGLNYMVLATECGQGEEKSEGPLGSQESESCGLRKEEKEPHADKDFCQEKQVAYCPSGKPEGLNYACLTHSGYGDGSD
Inhibitor of nuclear factor kappa-B kinase subunit beta (Homo sapiens), sequence (O14920 whole entry): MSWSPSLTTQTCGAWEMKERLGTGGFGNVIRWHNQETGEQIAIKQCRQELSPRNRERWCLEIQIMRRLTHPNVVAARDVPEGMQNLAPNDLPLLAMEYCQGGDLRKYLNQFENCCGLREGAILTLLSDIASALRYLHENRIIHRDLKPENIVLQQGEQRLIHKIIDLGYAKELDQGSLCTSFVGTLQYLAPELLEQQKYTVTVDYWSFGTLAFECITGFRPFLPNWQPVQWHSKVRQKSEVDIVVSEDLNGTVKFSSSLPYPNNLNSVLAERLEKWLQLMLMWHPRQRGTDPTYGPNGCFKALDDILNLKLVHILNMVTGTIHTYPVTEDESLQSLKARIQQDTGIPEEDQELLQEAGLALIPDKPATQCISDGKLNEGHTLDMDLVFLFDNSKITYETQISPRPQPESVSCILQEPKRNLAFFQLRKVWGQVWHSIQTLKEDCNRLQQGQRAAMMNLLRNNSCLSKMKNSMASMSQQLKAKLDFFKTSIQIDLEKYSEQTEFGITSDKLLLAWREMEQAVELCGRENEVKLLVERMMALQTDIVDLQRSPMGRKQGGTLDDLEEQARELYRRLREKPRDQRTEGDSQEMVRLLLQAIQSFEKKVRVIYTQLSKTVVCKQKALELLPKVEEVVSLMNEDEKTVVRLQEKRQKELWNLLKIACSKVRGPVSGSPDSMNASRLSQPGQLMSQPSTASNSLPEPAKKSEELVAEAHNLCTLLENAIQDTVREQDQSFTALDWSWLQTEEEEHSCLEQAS

inhibition (Homo sapiens [3]): inactive | inhibition [4]: inactive | inhibition [5]: inactive | Tmax [6]: 1.83 h | inhibition [7]: inactive | inhibition [8]: inactive | Vd [10]: 0.301 L/kg | inhibition [11]: 100% | inhibition [12]: inactive | inhibition [13]: inactive | IC50 [14]: 0.131 µM | inhibition [15]: inactive | inhibition [16]: inactive | inhibition [17]: inactive | inhibition [20]: inactive | inhibition [21]: inactive | AUC(0-t) at 48 h [22]: 45600 ng·h/mL | inhibition [23]: inactive | inhibition [24]: inactive | AUC(0-inf) [26]: 46100 ng·h/mL | inhibition (Homo sapiens [27]): inactive | IC50 (THP-1): 10.8 µM | IC50 (HL-60): 7.7 µM | IC50 (MOLM-14): 0.22 µM | inhibition [33]: inactive | inhibition [34]: Dose-dependent-effect | IC50 (Jurkat): > 30 µM
SMILES: O=C(Nc1ccc(Oc2ccnc(NC(=O)N3CC(O)C3)c2)c(F)c1)c1cn(-c2cccnc2)nn1
Activity [1]: Non-toxic | viability at 0.3 µM (MOLM-13 [2]): 68.4% | inhibition [9]: inactive | Activity (MOLM-13 [18]): 87.7% | Activity [19]: Non-toxic | viability at 3 µM (MOLM-13 [25]): 50.6% | IC50 (EBC-1): > 30 µM | IC50 at 72 h [28]: > 30 µM | Activity (MOLM-13 [29]): 1.05% | Activity (MOLM-13 [30]): 0.097% | Activity (MOLM-13 [31]): Not active; Compound Barely Affect Stat5 Level | Activity (MOLM-13 [32]): Active
